Assay results: patent US20100204146A1, “Treatment of Oestrogen Dependant Conditions in Pre-menopausal Women” (PregLem S.A., priority 2007, published 2010)

Legend:
[1] = test system: female Cynomolgus monkeys (Macaca fascicularis); assay: 39-week intragastric study in female Cynomolgus monkeys: impact on ovarian cycle and function, microscopic status at necropsy; conditions: for Ovary: Absence of corpora lutea (% of animals) / Ovary: Absence of corpora lutea (no. of animals) / Ovary: Cyst (% of animals) / Ovary: Cyst (no. of animals) / Ovary: Increase in growing follicles (% of animals) / Ovary: Increase in growing follicles (no. of animals): 8 animals, after 39 weeks, necropsy; for menstrual cycle pattern: whole treatment period
Description: Three groups of eight female Cynomolgus monkeys (Macaca fascicularis) each were treated intragastrically over a period of approximately 39 weeks at daily doses of 0.2, 0.8 and 2.0 mg/kg of E2MATE using an application volume of 10 mL/kg. A fourth group (control) received an equivalent volume of the vehicle under the same experimental conditions. […] After 39 weeks of treatment, the microscopic status at necropsy was as follows:

[2] = test system: person with peritoneal and ovarian endometriosis; assay: Endometriosis patient treated with STS-I, then with added progestin; format: in vivo, human
Description: A nulliparous person was diagnosed with a moderate/severe peritoneal and ovarian endometriosis during a laparoscopy performed for chronic pelvic pain, dyspareunia and infertility. Despite careful debulking of the lesions during the laparoscopy, the symptoms persisted and medical treatment is indicated. A STS-I, E2MATE is administered at 1.0 mg/week.

[3] = test system: metastatic breast cancer; assay: Metastatic breast cancer patient treated with STS-I with GnRH agonist maintained; format: in vivo, human; conditions: daily administration
Description: In a person, a metastatic breast cancer is progressing despite administration of aromatase inhibitor and a GnRH agonist. […] STX64, a STS-I from the coumate family of compound is administered on a daily basis.

[4] = molecular target: T1, sulfatase activity present in eutopic and ectopic endometrium (Homo sapiens, UniProt P08842); conditions: in vitro; cited from earlier work
T1 construct: abolish the sulfatase activity present in eutopic and ectopic endometrium; host or cells: eutopic and ectopic endometrium (tissue)
T1 sequence (P08842 22-583): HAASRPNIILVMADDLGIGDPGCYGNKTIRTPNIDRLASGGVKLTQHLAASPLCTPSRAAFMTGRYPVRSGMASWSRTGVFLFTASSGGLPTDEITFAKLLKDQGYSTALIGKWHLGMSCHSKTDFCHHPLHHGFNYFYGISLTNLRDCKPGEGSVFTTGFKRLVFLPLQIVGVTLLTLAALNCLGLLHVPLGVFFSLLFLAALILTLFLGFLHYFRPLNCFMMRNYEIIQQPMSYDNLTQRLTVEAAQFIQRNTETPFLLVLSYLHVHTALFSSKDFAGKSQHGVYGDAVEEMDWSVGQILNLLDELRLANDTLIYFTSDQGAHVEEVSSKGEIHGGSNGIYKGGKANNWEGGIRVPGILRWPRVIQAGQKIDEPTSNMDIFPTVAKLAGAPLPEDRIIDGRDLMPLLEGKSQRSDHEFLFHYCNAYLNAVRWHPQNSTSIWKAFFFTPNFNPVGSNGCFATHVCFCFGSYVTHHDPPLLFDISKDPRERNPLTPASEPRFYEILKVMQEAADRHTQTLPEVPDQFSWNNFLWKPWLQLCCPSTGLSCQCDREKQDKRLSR

[5] = E2MATE 1.0 mg/week associated with norgestrel 0.1 mg/day

C[C@]12CC[C@@H]3c4ccc(OS(N)(=O)=O)cc4CC[C@H]3[C@@H]1CC[C@@H]2O [E2MATE, Estradiol sulfamate]
animals became amenorrheic ([1]; 0.2 mg/kg daily, intragastric, treatment period): 2/8
Ovary: Absence of corpora lutea (% of animals) ([1]; 0.2 mg/kg dose group): (87.5%)
Ovary: Absence of corpora lutea (no. of animals) ([1]; 0.2 mg/kg dose group): 7
Ovary: Cyst (% of animals) ([1]; 0.2 mg/kg dose group): (12.5%)
Ovary: Cyst (no. of animals) ([1]; 0.2 mg/kg dose group): 1
Ovary: Increase in growing follicles (% of animals) ([1]; 0.2 mg/kg dose group): (50%)
Ovary: Increase in growing follicles (no. of animals) ([1]; 0.2 mg/kg dose group): 4
menstrual cycle pattern ([1]; 0.8 mg/kg daily, intragastric): persistent amenorrhea in most animals
Ovary: Absence of corpora lutea (% of animals) ([1]; 0.8 mg/kg dose group): (100%)
Ovary: Absence of corpora lutea (no. of animals) ([1]; 0.8 mg/kg dose group): 8
Ovary: Cyst (% of animals) ([1]; 0.8 mg/kg dose group): (12.5%)
Ovary: Cyst (no. of animals) ([1]; 0.8 mg/kg dose group): 1
Ovary: Increase in growing follicles (% of animals) ([1]; 0.8 mg/kg dose group): (12.5%)
Ovary: Increase in growing follicles (no. of animals) ([1]; 0.8 mg/kg dose group): 1
menstrual cycle pattern ([1]; 2.0 mg/kg daily, intragastric): persistent amenorrhea in most animals
Ovary: Absence of corpora lutea (% of animals) ([1]; 4.0 mg/kg dose group): (100%)
Ovary: Absence of corpora lutea (no. of animals) ([1]; 4.0 mg/kg dose group): 8
Ovary: Cyst (% of animals) ([1]; 4.0 mg/kg dose group): (0%)
Ovary: Cyst (no. of animals) ([1]; 4.0 mg/kg dose group): 0
Ovary: Increase in growing follicles (% of animals) ([1]; 4.0 mg/kg dose group): (50%)
Ovary: Increase in growing follicles (no. of animals) ([1]; 4.0 mg/kg dose group): 4
endometriosis symptoms ([2]; 1.0 mg/week, alone): partially relieved
serum estradiol (E2) ([2]; 1.0 mg/week, alone): fluctuating serum E2 in the hundred of pg range
vaginal bleeding ([2]; 1.0 mg/week, alone): irregular episodes of mild but painful vaginal bleeding
patient's symptoms [2, 5]: further improvement
serum estradiol levels and bleeding episode [2, 5]: reduction

NS(=O)(=O)Oc1ccc2c3c(c(=O)oc2c1)CCCCC3 [STX64]
follicular development [3]: no follicular development is recorded
sulfatase activity in eutopic and ectopic endometrium [4]: abolish
